Assay results reported in patent publication US7405228B2, “Antibacterial cyano-(substituted)-methylenepiperidinophenyl oxazolidinones targeting multiple ribonucleoprotein sites” (Wockhardt Limited, priority 2002, dated 2008).
≈ marks a conversion by molar mass, not a printed value. Where two headings read alike, the source gives them in different places.

Assays:
[1] = system: S. pneumoniae ATCC 6303 LR; assay: MIC determination, linezolid-resistant mutant S. pneumoniae ATCC 6303 LR; type: cell-based; settings: Streptococcus pneumoniae, ATCC6303, read-out: Linezolid MIC
S. pneumoniae ATCC 6303 = assay: MIC determination, linezolid sensitive S. pneumoniae ATCC 6303 (SPN 6303); type: cell-based; settings: Streptococcus pneumoniae, ATCC6303
Protocol: (§1) Infecting doses of organisms given by intraperitoneal route in 5% hog gastric mucin were 10^3-10^4 CFU (colony forming units)/animal for SPN 6303 and 10^8 CFU/animal for MRSA-32. In case of MRSA-32, Linezolid was administered by oral route, 1 and 4 h post infection, BID (twice a day) for 1 day and for SPN 6303 BID for 2 days. […] MICs of Methicillin Resistant Staphylococcus aureus-32 Linezolid resistant (MRSA-32 LNZR), S. pneumoniae 744 Linezolid resistant (SPN 744 LNZR) and parent Linezolid sensitive strains MRSA-32 and SPN 6303 were determined for Linezolid by NCCLS agar dilution method.

S. aureus Smith = assay: MIC determination, S. aureus Smith; type: cell-based; settings: Staphylococcus aureus, read-out: Linezolid MIC
E. faecium ATCC 19434 = assay: MIC determination, parent strain E. faecium ATCC 19434; type: cell-based; settings: Enterococcus faecium, ATCC19434; Linezolid sensitive E. faecium ATCC 19434, NCCLS method
Protocol: (§2) E. faecium ATCC 19434 strain at a cell density of 10^6/ml was inoculated in Mueller Hinton broth medium containing Linezolid at a concentration of 5 and 7.5 mcg/ml. The stationary culture was incubated at 37° C. and inspected at every 24 hours to assess the formation of turbidity due to the onset of bacterial growth. […] A 50 microliter sample of turbid flask was plated on Mueller Hinton agar medium incorporated with linezolid at 7.5 mcg/ml. The agar plates were incubated for 48 hours at 37° C. for the formation of discrete colonies of linezolid-resistant strain of E. faecium (E. faecium 367 LNZR). MICs of resistant mutant E. faecium 367 LNZR and parent strain E. faecium ATCC 19434 were determined for linezolid by NCCLS method.

MRSA-32 = assay: ED50 in mouse systemic infection model, MRSA-32; type: in vivo; settings: MRSA-32 parent strain
Protocol: as §1

SPN 6303 = assay: ED50 in mouse systemic infection model, SPN 6303; type: in vivo; settings: SPN 6303 parent strain
Protocol: as §1

S. aureus Smith LR = assay: MIC determination, linezolid-resistant mutant S. aureus Smith LR; type: cell-based; settings: Staphylococcus aureus, read-out: Linezolid MIC
SPN 744 LNZR [2] = assay: MIC determination, linezolid resistant SPN 744 LNZR; type: cell-based; settings: Streptococcus pneumoniae
Protocol: as §1
(§3) Cultures were further diluted 1:10 in Mueller Hinton broth. Using Denley's mutipoint inoculator, 10^4 cells were deposited on Mueller Hinton agar (Difco) containing range of 2 fold dilutions of test compounds. […] MIC is defined as minimum drug concentration that inhibits test organisms. For determining MIC of test compounds against Streptococcus pneumoniae, Mueller Hinton agar containing 5% sheep blood was employed.

S. aureus MRSA-32 LNZR = assay: MIC determination, linezolid resistant S. aureus MRSA-32 LNZR; type: cell-based; settings: Staphylococcus aureus
Protocol: as §1, §3

SPN 49619 = assay: MIC determination, linezolid sensitive SPN 49619; type: cell-based; settings: Streptococcus pneumoniae; linezolid sensitive strain, Table 3
[3] = system: Enterococcus faecalis 416 strain; assay: Killing effect study (bactericidal vs bacteriostatic activity); type: cell-based; settings: initial count 10^6 CFU/ml
Protocol: The initial inoculum was adjusted to 10^6 CFU (colony forming units) per ml. The flasks were kept on shaker in close cabinet at 35° C. Aliquots were drawn at 112 hours and cell count was determined to assess the extent of loss in viability.

SPN 744 LNZR [4] = assay: ED50 in mouse systemic infection model, SPN 744 LNZR; type: in vivo
MRSA 032 LR = assay: MIC determination, linezolid-resistant mutant MRSA 032 LR; type: cell-based; settings: Staphylococcus aureus, read-out: Linezolid MIC
[5] = system: Enterococcus faecalis 416; assay: Mutant Prevention Concentration (MPC) determination; type: cell-based; set-up: unit not given here; settings: E. faecalis 416, 10^9 CFU/plate, TSA, 48 hours at 35° C.
Protocol: Clinical isolate Enterococcus faecalis 416 was spirally plated on Tryptic Soya agar (TSA) plate containing various 2 fold dilutions each of a representative compound of the invention and Linezolid so as to give 10^9 CFU/plate. After incubation at 35° C. for 48 hours, the CFU on each plate was determined. MPC is defined as minimum concentration of drug that prevents mutant colonies on respective antibiotic containing plate.

MRSA 032 = assay: MIC determination, linezolid sensitive MRSA 032 (MRSA-32); type: cell-based; settings: Staphylococcus aureus
Protocol: as §1, §3

[6] = system: Enterococcus faecalis 416 strain; assay: Propensity to resistance development (resistant colonies per plate); type: cell-based; settings: E. faecalis 416 at 10^8 CFU, compound concentration 5 mcg/ml, 48 hours at 35° C.
Protocol: Enterococcus faecalis 416 strain at 10^8 CFU density level was spirally plated on Mueller Hinton agar containing 5 mcg/ml each of linezolid and representative compound of the invention. Plates were incubated at 35° C. for 48 hours and number of resistant colonies developed in presence of respective compounds were counted by automated counter.

MRSA-32 LNZR = assay: ED50 in mouse systemic infection model, MRSA-32 LNZR; type: in vivo
E. faecium 367 LNZR = assay: MIC determination, linezolid resistant E. faecium 367 LNZR; type: cell-based; settings: Enterococcus faecium
Protocol: as §2, §3

CC(=O)NC[C@H]1CN(c2ccc(N3CCOCC3)c(F)c2)C(=O)O1 [Linezolid, reference compound] showed an MIC [1] of 25 µg/mL (≈ 74.1 µM), an MIC (S. pneumoniae ATCC 6303; S. pneumoniae ATCC 6303, Table 1, read-out: Linezolid MIC) of 0.8 µg/mL (≈ 2.37 µM) and an MIC (S. pneumoniae ATCC 6303; parent Linezolid sensitive SPN 6303, NCCLS agar dilution method, read-out: MIC) of 0.8 µg/mL (≈ 2.37 µM). The MIC (S. aureus Smith) was 1.56 µg/mL (≈ 4.62 µM), the MIC (E. faecium ATCC 19434) was 1.56 µg/mL (≈ 4.62 µM) and the ED50 (MRSA-32) was 5 mg/kg. For the same molecule, the ED50 (SPN 6303) was 75 mg/kg, the MIC (S. aureus Smith LR) was 50 µg/mL (≈ 148 µM) and the MIC (SPN 744 LNZR [2]) was 25 µg/mL (≈ 74.1 µM). For the same molecule, the MIC (SPN 744 LNZR [2]; read-out: MIC SPN744 LNZR) was 25 µg/mL (≈ 74.1 µM), the MIC (S. aureus MRSA-32 LNZR) was 50 µg/mL (≈ 148 µM) and the MIC (S. aureus MRSA-32 LNZR; 24 h, read-out: MIC MRSA 32 LNZR) was over 25 µg/mL. The MIC (SPN 49619) was 0.8 µg/mL (≈ 2.37 µM), the “Final Count (112 h)” value ([3]; E. faecalis 416, 5 mcg/ml compound, Table 4) was 10^8 CFU/ml and the “final count after killing effect study” value ([3]; E. faecalis 416, 5 mcg/ml) was 10^9 CFU/ml. For the same molecule, the ED50 (SPN 744 LNZR [4]) was over 200 mg/kg, the MIC (MRSA 032 LR) was 25 µg/mL (≈ 74.1 µM) and the MPC [5] was 12.5. It also gave an MIC (MRSA 032) of 1.56 µg/mL (≈ 4.62 µM), an MIC (MRSA 032; read-out: Linezolid MIC) of 1.56 µg/mL (≈ 4.62 µM) and an MIC (MRSA 032; read-out: MIC MRSA 32) of 1.56 µg/mL (≈ 4.62 µM). The No. of colonies/plate [6] was 1.2 × 10^2, the ED50 (MRSA-32 LNZR) was 100 mg/kg and the MIC (E. faecium 367 LNZR) was 25 µg/mL (≈ 74.1 µM). For the same molecule, the MIC (E. faecium 367 LNZR; read-out: MIC E. faecium 367 LNZR) was over 25 µg/mL.
